From patent US20260297164A1, “ANTI-FIBROTIC PEPTIDES AND USES THEREOF” (Deackt, Inc., priority 2021, published 2026)

Test system: autophagy in lung fibroblasts
Assay: TGF-β1 effect on autophagy (LC3, p62) in lung fibroblasts
Assay type: cell-based, mouse
Details: TGF-β1 10 ng/ml, 24 h
Protocol: FIG. 3. CD148 deficiency enhances PI3K/Akt/mTOR signaling which results in low autophagy, high p62 expression in lung fibroblasts. (A) Mouse lung fibroblasts were isolated from Ptprj^fl/fl Col1a2^Cre-ER(T)+/0 mice (Ptprj−/−) and Col1a2^Cre-ER(T)+/0 mice (WT) and then treated with 4-OHT (1 μM) for 24 h. After 4-OHT treatment, cells were exposed to TGF-β1 (10 ng/ml) for 24 h. After stimulation, cells were harvested, and the expression of p-p85 (Tyr458), p-Akt (Ser473), pmTOR (Ser2448), p-p70 S6 kinase (Thr389), p-S6 ribosomal protein (Ser235/236) and CD148 (n=4 for each condition) in lysates was determined by Western immunoblotting and corresponding densitometry (ImageJ software). Data were normalized to corresponding dephospho-forms or GAPDH. (B) WT and Ptprj−/− cells were stimulated with TGF-β1 (10 ng/ml) for 24 h. Then cells were lysed and LC3-I and -II and p62 were measured by western blot (n=4). […] Then, autophagy flux was measured by LC3-II accumulation in the absence or presence of lysosomal acidification inhibitor chloroquine (25 μM) at 2, 4 and 6 h (n=4). […] LC3 puncta positive cells were quantified using ImageJ (D). […]
Polyacrylamide gel electrophoresis and immunoblotting were performed according to standard methods. […] The signals were detected by ECL (Thermo Fisher Scientific, Waltham, MA). […]

TGF-β1
autophagy (LC3-II relative to LC3-I): downregulated autophagy | p62 expression: increased p62 expression
